Data as given in ChEMBL document CHEMBL1255536, “Synthesis of aminoquinazoline derivatives and their antiproliferative activities against melanoma cell line” (Bioorg Med Chem Lett, 2010).

Tests used:
[1] = Cytotoxicity against human A375P cells after 24 hrs by MTT assay; assay type: functional, cell-based
[2] = Cytotoxicity against human A375P cells at 100 uM after 24 hrs by MTT assay; assay type: functional, cell-based
HS27 = assay: Cytotoxicity against human HS27 cells after 24 hrs by MTT assay; assay type: cell-based; conditions: HS27, 24 h
[3] = molecular target: RAF proto-oncogene serine/threonine-protein kinase (Homo sapiens, UniProt P04049); assay: Inhibition of c-Raf
Chain of RAF proto-oncogene serine/threonine-protein kinase (P04049 whole entry): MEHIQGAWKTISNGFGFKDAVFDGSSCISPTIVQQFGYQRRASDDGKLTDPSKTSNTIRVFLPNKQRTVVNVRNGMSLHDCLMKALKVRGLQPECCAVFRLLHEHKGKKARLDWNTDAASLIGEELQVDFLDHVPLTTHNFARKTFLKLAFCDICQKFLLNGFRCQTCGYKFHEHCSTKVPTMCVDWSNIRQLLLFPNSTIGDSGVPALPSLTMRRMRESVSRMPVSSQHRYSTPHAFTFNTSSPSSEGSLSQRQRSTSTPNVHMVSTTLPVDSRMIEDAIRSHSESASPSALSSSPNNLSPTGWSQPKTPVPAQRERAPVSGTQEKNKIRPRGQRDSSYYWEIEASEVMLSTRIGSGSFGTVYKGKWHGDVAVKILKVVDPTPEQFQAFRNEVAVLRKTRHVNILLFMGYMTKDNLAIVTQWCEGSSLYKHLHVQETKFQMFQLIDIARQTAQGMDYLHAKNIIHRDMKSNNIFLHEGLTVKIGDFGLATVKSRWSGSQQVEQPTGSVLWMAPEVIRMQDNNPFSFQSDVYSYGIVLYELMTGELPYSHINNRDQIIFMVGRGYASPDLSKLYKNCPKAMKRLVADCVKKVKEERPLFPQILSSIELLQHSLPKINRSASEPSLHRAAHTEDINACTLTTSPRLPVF

[4] = molecular target: Serine/threonine-protein kinase B-raf (Homo sapiens, UniProt P15056, V600E); assay: Inhibition of b-Raf V600E mutant
Chain of Serine/threonine-protein kinase B-raf (P15056 2-766 V600E limits assumed): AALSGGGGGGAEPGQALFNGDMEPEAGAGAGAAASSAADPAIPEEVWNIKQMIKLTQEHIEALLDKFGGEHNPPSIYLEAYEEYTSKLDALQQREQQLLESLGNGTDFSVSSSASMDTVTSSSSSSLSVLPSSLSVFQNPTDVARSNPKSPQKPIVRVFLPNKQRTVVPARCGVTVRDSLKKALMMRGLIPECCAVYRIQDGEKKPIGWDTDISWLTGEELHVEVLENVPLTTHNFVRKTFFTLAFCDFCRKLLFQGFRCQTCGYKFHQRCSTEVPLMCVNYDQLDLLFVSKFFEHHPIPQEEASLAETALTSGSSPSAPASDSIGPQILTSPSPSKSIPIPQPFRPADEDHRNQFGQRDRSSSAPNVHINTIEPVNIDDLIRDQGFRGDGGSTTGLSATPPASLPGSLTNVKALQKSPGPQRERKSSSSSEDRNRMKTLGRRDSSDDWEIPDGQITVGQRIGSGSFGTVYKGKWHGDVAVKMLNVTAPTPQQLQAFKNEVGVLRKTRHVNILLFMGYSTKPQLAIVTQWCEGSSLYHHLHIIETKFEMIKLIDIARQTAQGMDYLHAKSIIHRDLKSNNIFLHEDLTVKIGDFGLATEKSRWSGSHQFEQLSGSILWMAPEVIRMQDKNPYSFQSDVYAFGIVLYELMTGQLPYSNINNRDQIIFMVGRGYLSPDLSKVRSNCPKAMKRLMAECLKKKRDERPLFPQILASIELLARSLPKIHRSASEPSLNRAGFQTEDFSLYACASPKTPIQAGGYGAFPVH

Row | SMILES | IC50 [1] | IC50 [2] | other results
1 | CNc1ncnc2c(CNc3cc(NC(=O)c4ccc(Cl)c(C(F)(F)F)c4)ccc3C)cccc12 | 9700 nM |  | 
2 | CNc1ncnc2c(CNc3cc(NC(=O)c4cc5ccccc5s4)ccc3C)cccc12 |  | Not Active | 
3 | CNc1ncnc2c(CNc3cc(NC(=O)c4ccc(Br)s4)ccc3C)cccc12 | 10500 nM |  | 
4 | CNc1ncnc2c(CNc3cc(NC(=O)c4ccc(Cl)c(-n5cnc(C)c5)c4)ccc3C)cccc12 |  | Not Active | 
5 | CNc1ncnc2c(CNc3cc(NC(=O)c4cscn4)ccc3C)cccc12 | 1900 nM |  | 
6 | CNc1ncnc2c(CNc3cc(NC(=O)c4ccc(OC)c5ccc(OC)cc45)ccc3C)cccc12 |  | Not Active | 
7 | CNc1ncnc2c(CNc3cc(NC(=O)c4ccc(N)c(C(F)(F)F)c4)ccc3C)cccc12 |  | Not Active | 
8 | CNc1ncnc2c(CNc3cc(NC(=O)c4ccc(-c5ccc(OC)cc5)o4)ccc3C)cccc12 |  | Not Active | 
9 | CNc1ncnc2c(CNc3cc(NC(=O)c4cc(C)on4)ccc3C)cccc12 | 1200 nM |  | 
10 | CNc1ncnc2c(CNc3cc(NC(=O)c4cc(=O)c5ccccc5o4)ccc3C)cccc12 | 6 nM |  | IC50 (HS27): 230 nM; IC50 [3]: 765 nM; IC50 [4]: 19500 nM
11 | CNc1ncnc2c(CNc3cc(NC(=O)c4ccnnc4)ccc3C)cccc12 | 61700 nM |  | 
12 | CNc1ncnc2c(CNc3cc(NC(=O)c4cc(C(F)(F)F)cc(C(F)(F)F)c4)ccc3C)cccc12 | 769 nM |  | 
13 | CNc1ncnc2c(CNc3cc(NC(=O)c4ccncc4Cl)ccc3C)cccc12 |  | Not Active | 
14 | CNC(=O)c1cc(Oc2ccc(NC(=O)Nc3ccc(Cl)c(C(F)(F)F)c3)cc2)ccn1 [SORAFENIB] | 5580 nM |  | 
15 | CNc1ncnc2c(CNc3cc(NC(=O)c4ccc5c(c4)OCCO5)ccc3C)cccc12 | 137 nM |  | IC50 (HS27): 1200 nM
16 | CNc1ncnc2c(CNc3cc(NC(=O)c4ccc(-c5cc(C(F)(F)F)ccc5Cl)o4)ccc3C)cccc12 | 14900 nM |  | 
17 | CNc1ncnc2c(CNc3cc(NC(=O)c4cc(C)oc4C)ccc3C)cccc12 |  | Not Active | 
18 | CNc1ncnc2c(CNc3cc(NC(=O)c4cnccn4)ccc3C)cccc12 |  | Not Active | 
19 | CNc1ncnc2c(CNc3cc(NC(=O)c4cccc(C(F)(F)F)c4)ccc3C)cccc12 | 433 nM |  | 
